Results reported in patent US10098581B2, “Integrated electrical profiling system for measuring leukocytes activation from whole blood” (Massachusetts Institute of Technology, priority 2014, dated 2018).

How the values were obtained:
Type in all cases: cell-based
human granulocytes [1] = assay: IDS mechanism study of neutrophil activation with chemical inhibitors; conditions: 10 MHz; 0.5 μM fMLP, 2 μM PMA; 20 minutes stimulation
Method: This experiment focuses on the mechanism study of electrical changes during neutrophil activation. The mechanism study aims to help understand which aspect of neutrophil activation iso-dielectric separation is sensitive to. Different inhibitors were added to reduce the effect of membrane ruffling, reactive oxygen species (ROS) generation, and degranulation before activation to decouple the effect of the three factors. FIG. 19 is a schematic diagram illustrating aspects of activation of a neutrophil in response to a stimulus. In membrane ruffling, volume changes occur with advanced activation. Membrane roughness can increase the membrane capacitance. In Reactive Oxygen Species (ROS) generation, cytoplasm conductivity increases. NADPH oxidase is a major cause of the ROS generation. Degranulation occurs during phagocytosis, and lowers cytoplasmic ionic content. The experiment uses chemical inhibitors to block specific aspects of activation to determine the dominant causes of electrical changes. FIG. 20A is a summary of the procedure. Human granulocytes are first isolated from whole blood with a density gradient method, and then were split into six aliquots for different treatment. CytB, CytB+Jasp, CytB+DPI were added for inhibiting membrane ruffling, membrane ruffling and degranulation, membrane ruffling and ROS generation, respectively. The inhibition treatment lasted for ten minutes. […]

human granulocytes [2] = assay: Flow cytometry and functional assays of PMA-activated granulocytes; conditions: different doses of PMA
Method: 10 ml samples of heparinized human blood were obtained from healthy donors (Blood Research Components, LLC). Two aliquots of 5 ml of blood were set in 3 ml of Mono-Poly Resolving Medium (MP Biosciences) and the samples were spun in a free hanging centrifuge at 400 cfg for 40 min. The resulting layered samples contained a band of granulocytes that were recovered and triple washed with a PBS solution. Finally, the cells were resuspended in a PBS solution (PBS, 1% BSA, 1 u Heparin).
(§1) Human granulocytes were activated with different concentrations of PMA (Phorbol 12-Myristate 13-Acetate, Sigma Aldrich) in a PBS solution with Mg^++ and Ca^++. To activate the cells, a 1:1 solution of suspended cells was mixed with PMA buffer and the resulting suspension was incubated for 20 min at room temperature.
Flow cytometry (FC) was performed with a BD Accuri (Becton Dickinson) flow cytometer with a 488 nm and a 670 nm emitter. Granulocytes were gated based on side and forward scatter and stained with anti-human CD11b-PE, anti-human CD66b-PerCP-CY5.5 and anti-human CD18-FITC (Becton Dickinson) as activation indicators. Mouse samples were stained using anti-mouse CD-18 and anti-mouse Ly6G as an activation marker.
The first goal was to confirm that IDS is able to discern IDP differences in activated and non-activated human granulocytes extracted from freshly collected blood. […]

human granulocytes [3] = assay: Single-sided iso-dielectric separation (IDS): IDP distributions of PMA-treated vs non-treated granulocytes
From the text: In IDS, a heterogeneous population of cells suspended in high conductivity media was loaded into a microfluidic chip. Other inlets containing intermediate and low conductivity media provided a parallel laminar co-flow. This configuration generated a conductivity gradient perpendicular to the main microfluidic channel flow. The channel also had slanted planar electrodes patterned at the bottom (single-sided IDS) or top and bottom (double-sided IDS). An AC electric field applied to the electrodes generated a DEP barrier that guided the cells across the conductivity gradient. Cells escaped the DEP barrier at their isodielectric position (IDP), which is the position where they are at dielectric equilibrium with the surrounding medium. Cells with different effective permittivity (or effective conductivity) escaped at a different IDP resulting in a transverse spatial distribution of cells. A CCD camera near the end of the channel took videos of the cells. Finally, image-processing software detected these cells and computed the resulting IDP distribution (see FIGS. 4a-4d).
To determine the IDP different populations, suspensions (2×10^6 cells/ml) in PBS buffer with a conductivity of 1.2 S/m (PBS, 1% BSA, 1 u Heparin) were used. For the intermediate and low conductivity media, this buffer was mixed with an isotonic sucrose solution to achieve an intermediate conductivity of 0.8 S/m and a low conductivity of 0.4 S/m.
A function generator (Agilent 33220A) and an amplifier applied a 10 Vpp AC field with the same amplitude across all frequencies. A CCD camera at the end of the main channel imaged fluorescently labeled cells flowing across the field of view. An image detection script analyzed the videos to detect cells in each frame and determine the centroid of each cell. The same script generated cell position distributions that correspond to the resulting IDP distribution.
as §1
Using a single-sided IDS platform, the IDP distributions of granulocytes treated with 1 μM PMA and a control population of non-treated granulocytes were examined. A 10 Vpp AC voltage was applied to the electrodes with frequencies ranging from 0.5 MHz to 15 MHz. Cells were loaded at 0.4 μl/min and the intermediate and low conductivity buffer at 0.55 μl/min (1.5 μl/min total). To determine the IDP distributions for each frequency, the IDP distributions of at least 1000 cells were recorded, which required an acquisition of about 1.5 min. […]

neutrophils = assay: IDP evolution of PMA-treated neutrophils over treatment time; conditions: normalized IDP vs PMA treatment time in minutes (FIG. 16B)
From the text: In another embodiment according to the invention, isodielectric position dynamics can be used to assist with diagnostics. In particular, activation of leukocytes can be tracked with DCFH-DA oxidation. FIG. 16A is a graph of respiratory burst (DCFH-DA oxidation), showing DCF median intensity on the vertical axis, versus PMA (Phorbol 12-Myristate 13-Acetate, Sigma Aldrich) treatment time in minutes (horizontal axis), at different concentrations of PMA. FIG. 16B is a graph of iso-dielectric point (IDP) evolution of PMA-treated neutrophils, showing normalized IDP on the vertical axis versus PMA treatment time in minutes on the horizontal axis.

SMILES | IDP shift of stimulated granulocytes (indicating activation) (human granulocytes [1]) | levels of reactive oxygen species (human granulocytes [2]) | CD11b and CD18 expression (human granulocytes [2]; 20 min at room temperature) | IDP distribution of treated granulocytes vs non-treated control (human granulocytes [3]; 1 μM PMA, as frequency increases (0.5-15 MHz), 10 Vpp) | peak ROC area-under-the-curve (AUC), IDP as classification threshold (human granulocytes [3]; 1 μM PMA, frequencies 10-15 MHz) | activation state of neutrophils (IDP profiling) (human granulocytes [3]; 1000 nM PMA) | ROC area under the curve, IDP as classification criteria (human granulocytes [3]; PMA treated vs control, above 5 MHz) | IDP of treated neutrophils versus treatment time (neutrophils)
CSCC[C@H](NC=O)C(=O)N[C@@H](CC(C)C)C(=O)N[C@@H](Cc1ccccc1)C(=O)O [fMLP, N-Formylmethionyl-leucyl-phenylalanine] | shifted to the left | – | – | – | – | – | – | –
CCCCCCCCCCCCCC(=O)O[C@@H]1[C@@H](C)[C@@]2(O)[C@@H](C=C(CO)C[C@]3(O)C(=O)C(C)=C[C@@H]23)[C@@H]2C(C)(C)[C@]12OC(C)=O [PMA, Phorbol 12-Myristate 13-Acetate] | shifted to the left | increased | increased | displaced towards higher IDP | 0.62 | activated | > 0.6 | changes over time
